The target in this assay is T1, hGR (Homo sapiens, UniProt P04150).
T1 construct: expressed in transfected cells; host or cells: HEK 293T
T1 sequence (P04150 1-777): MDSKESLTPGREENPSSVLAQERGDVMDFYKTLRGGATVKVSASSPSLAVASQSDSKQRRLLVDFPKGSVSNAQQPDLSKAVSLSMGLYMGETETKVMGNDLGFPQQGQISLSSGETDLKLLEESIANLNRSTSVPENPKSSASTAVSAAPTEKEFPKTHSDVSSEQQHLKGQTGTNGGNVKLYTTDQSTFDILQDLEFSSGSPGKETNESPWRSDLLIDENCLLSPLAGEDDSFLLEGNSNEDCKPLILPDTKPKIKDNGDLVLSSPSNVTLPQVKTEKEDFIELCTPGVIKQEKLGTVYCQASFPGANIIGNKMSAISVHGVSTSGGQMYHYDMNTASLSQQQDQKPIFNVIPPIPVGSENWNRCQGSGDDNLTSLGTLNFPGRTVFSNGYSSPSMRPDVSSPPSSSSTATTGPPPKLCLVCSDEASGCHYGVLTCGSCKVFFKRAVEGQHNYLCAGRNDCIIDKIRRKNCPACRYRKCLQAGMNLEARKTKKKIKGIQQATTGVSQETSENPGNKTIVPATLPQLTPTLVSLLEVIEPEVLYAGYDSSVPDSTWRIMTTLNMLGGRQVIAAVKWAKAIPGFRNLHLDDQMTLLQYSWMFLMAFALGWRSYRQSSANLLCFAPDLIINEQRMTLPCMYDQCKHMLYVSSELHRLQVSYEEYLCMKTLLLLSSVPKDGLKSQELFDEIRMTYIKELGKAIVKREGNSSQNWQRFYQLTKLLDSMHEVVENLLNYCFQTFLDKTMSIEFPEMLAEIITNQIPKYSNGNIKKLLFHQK
Briefly: APRn selectivity: transactivation in HEK293T cells transiently expressing hGR. The following applies: for GR Antagonist efficacy (%): dexamethasone 10^−9 M; for Emax: HEK-293T, read-out: GR Agonist efficacy (%). It counts as cell-based. As to the method:
Measurement of the APRn Selectivity in HEK 293T.
The HEK-293T cells were cultured and transfected according to the method described above for the PR transactivation assays. The expression vectors pcDNA-hAR, kindly provided by G. A. Coetzee, pchGR (Hellal-Levy, C et al. FEBS Lett 1999, 464, 9), and pchMR (Fagart, J. et al. EMBO J. 1998, 17, 3317) were used for studying the ability of APRn to activate or inactivate the AR, GR and MR, respectively. For each transfection assays, 2 μg of the expression vector was used together with 7 μg of the GRE2-Luc reporter vector. Dihydrotestosterone (DHT), dexamethasone (Dex) and Aldosterone (Aldo) were selected as AR, GR and MR ligands, respectively. They were used at the concentration of 10^−9 M. The APRn agonist and antagonist efficacy for AR, GR and MR were measured as described above for PR. The results are the mean±SEM of three independent experiments.
Transfection assays were performed in HEK 293T cells by using expression vectors for the hAR, hGR and hMR and the GRE2-Luc reporter used for the PR transactivation assays.

Where [1] appears, read: HEK293T transiently expressing hGR, mean±SEM.

Like-named read-outs stand apart in the source and are kept apart here.

On to `CC(=O)[C@H]1CC[C@H]2[C@@H]3CC=C4C[C@@H](F)CC[C@]4(C)[C@H]3CC[C@]12C` [APR-16, 3β-Fluoropregn-5-en-20-one], for which, under setting [1], the “GR Antagonist efficacy (%)” value is reported as 0.1 ± 2.2% and the Emax stood at 0.25 ± 0.02%.
For `CC#C[C@]1(O)CCC2C3CC[C@H]4CCCC[C@]4(C)C3CC[C@@]21C` (stereo partly drawn) [APR-42, 17α-(1-Propynyl)-5α-androstan-17β-ol], under setting [1], the “GR Antagonist efficacy (%)” value is on record as 4.4 ± 3.3% and the Emax was 0.22 ± 0.07%.
Regarding `C[C@]12CCC3C(CC=C4C[C@@H](F)CC[C@@H]43)C1CCC2=O` (stereo partly drawn) [APR-47, 3β-Fluoro-19-nor-androst-5-en-17-one], the Emax was 0.16 ± 0.02%. Besides, under setting [1], the “GR Antagonist efficacy (%)” value was determined as 1.5 ± 4.3%.
The like results for `CC#C[C@]1(O)CCC2C3CC=C4C[C@@H](F)CC[C@@H]4C3CC[C@@]21C` (stereo partly drawn) [APR-51, 3β-Fluoro-17α-(1-propynyl)-19-nor-androst-5-en-17β-ol] were, in that order, 0.29 ± 0.08% and 19.3 ± 7.3%.
The like results for `CC#C[C@]1(O)CCC2C3CC[C@H]4C[C@@H](F)CC[C@]4(C)C3CC[C@@]21C` (stereo partly drawn) [APR-43, 3β-Fluoro-17α-(1-propynyl)-5α-androstan-17β-ol] were, in that order, 0.17 ± 0.05% and −9.0 ± 1.7%.
The like results for `C[C@@H]1CCC2C3CC=C4C[C@@H](F)CC[C@]4(C)C3CC[C@]2(C)[C@H]1F` (stereo partly drawn) [APR-19, 3β,17α-Difluoro-17α-methyl-D-Homo-pregn-5-ene] were, in that order, 0.26 ± 0.05% and −3.5 ± 1.4%.
Turning to `CC#C[C@]1(O)CCC2C3CC[C@H]4CCCC[C@@H]4C3CC[C@@]21C` (stereo partly drawn) [APR-54, 17α-(1-Propynyl)-19-nor-5-androstan-17β-ol], under setting [1], the “GR Antagonist efficacy (%)” value is listed as −0.1 ± 3.3% and the Emax came out at 0.15 ± 0.02%.

The values above are taken from patent US20130203718A1 (priority 2010, published 2013).
